Experimental data from ChEMBL document CHEMBL3526012, “Metabolism of (2S)-pterosin A: identification of the phase I and phase II metabolites in rat urine” (Drug Metab Dispos, 2012).
In brackets after ≈: the same amount, converted by molar mass.

Legend:
[1] = Drug recovery in Wistar rat urine assessed as retention time treated with (2S)-Pterosin at 100 mg/kg, po administered via gavage measured up to 24 hrs by HRESIMS analysis; type: ADME, organism-based; set-up: dose 100 mg/kg, route oral; conditions: in vivo
[2] = Drug recovery in Wistar rat urine treated with (2S)-Pterosin at 100 mg/kg, po administered via gavage measured up to 24 hrs by reverse-phase HPLC analysis; type: ADME, organism-based; set-up: dose 100 mg/kg, route oral; conditions: in vivo
[3] = Drug recovery in Wistar rat urine assessed as retention time at 100 mg/kg, po administered via gavage measured up to 24 hrs by HRESIMS analysis; type: ADME, organism-based; set-up: dose 100 mg/kg, route oral; conditions: in vivo
[4] = Drug recovery in Wistar rat urine at 100 mg/kg, po administered via gavage measured up to 24 hrs by HRESIMS analysis; type: ADME, organism-based; set-up: dose 100 mg/kg, route oral; conditions: read-out: Drug recovery
[5] = Drug recovery in Wistar rat urine at 100 mg/kg, po administered via gavage measured up to 24 hrs by reverse-phase HPLC analysis; type: ADME, organism-based; set-up: dose 100 mg/kg, route oral; conditions: in vivo
HeLa = assay: Cytotoxicity against human HeLa cells; type: cell-based
[6] = Cytotoxicity against human HL60 cells; type: cell-based; conditions: HL-60

Compound | Retention_time [1] [min] | Drug recovery [2] | also measured
Cc1cc2c(c(C)c1CCO)C(=O)[C@H](C)[C@@H]2O | 25.27 | metabolite_detected | –
Cc1cc2c(c(C)c1CCO)C(=O)[C@@H](C)[C@@H]2O | 27.6 | metabolite_detected | –
Cc1c2c(cc3c1C(=O)[C@](C)(CO)C3)C(=O)OCC2 | 29.61 | metabolite_detected | –
Cc1cc2c(c(C)c1C)C(=O)[C@](C)(CO)[C@@H]2O | 46.2 | metabolite_detected | –
Cc1cc2c(c(C)c1CCO)C(=O)[C@](C)(CO)C2 | – | – | Retention_time [3]: 36.51 min; dose excreted at 24 h [4]: 2.64%; Drug recovery [5]: Active
Cc1cc2c(c(C)c1CCO)C(=O)[C@](C)(CO)[C@H]2O | 14.12 | metabolite_detected | –
Cc1cc2c(c(C)c1CCO)C(=O)[C@](C)(CO)[C@@H]2O | 20.74 | metabolite_detected | –
Cc1c2c(cc3c1C(=O)[C@](C)(CO)C3)COC(=O)C2 | 23.37 | metabolite_detected | –
Cc1c(CCO)c(CO)cc2c1C(=O)C(C)C2 (racemic) | 29.61 | metabolite_detected | –
Cc1cc2c(c(C)c1CC(=O)O)C(=O)C(C)C2 (racemic) | 48.39 | metabolite_detected | IC50 (HeLa): 30 µg/mL (≈ 129 µM)
Cc1cc2c(c(C)c1C(O)CO)C(=O)C(C)C2 (racemic) | 35.09 | metabolite_detected | –
Cc1cc2c(c(C)c1CCO)C(=O)C(C)C2 (racemic) | 49.54 | metabolite_detected | IC50 [6]: 8.7 µg/mL (≈ 39.9 µM)

The next lines start with results.

Retention_time [1] [min] | Drug recovery [2] | Compound | also measured
24.6 | metabolite_detected | Cc1cc2c(c(C)c1CC(=O)O[C@@H]1O[C@H](C(=O)O)[C@@H](O)[C@H](O)[C@H]1O)C(=O)[C@](C)(CO)C2 | –
26.11 | metabolite_detected | Cc1cc2c(c(C)c1CC(=O)O)C(=O)[C@](C)(CO)[C@@H]2O | –
29.61 | metabolite_detected | Cc1cc2c(c(C)c1CCO[C@@H]1O[C@H](C(=O)O)[C@@H](O)[C@H](O)[C@H]1O)C(=O)[C@](C)(CO)C2 | –
44.2 | metabolite_detected | Cc1cc2c(c(C)c1CCO[C@@H]1O[C@H](C(=O)O)[C@@H](O)[C@H](O)[C@H]1O)C(=O)C(C)C2 (stereo partly drawn) | –
45.33 | metabolite_detected | COC(=O)Cc1c(C)cc2c(c1C)C(=O)[C@](C)(CO)C2 | –
32.08 | metabolite_detected | Cc1cc2c(c(C)c1CCO)C(=O)[C@](C)(CO[C@@H]1O[C@H](C(=O)O)[C@@H](O)[C@H](O)[C@H]1O)C2 | –
37.27 | metabolite_detected | Cc1cc2c(c(C)c1CC(=O)O)C(=O)[C@](C)(CO)C2 | –
20.2 | metabolite_detected | Cc1c(CCO)c(CO)cc2c1C(=O)[C@](C)(CO)C2 | –
